Assay results: patent US7955847B2, “Method for enhancing leukocyte immune function” (priority 2004, dated 2011)

System: leukocyte NADPH oxidase (cytochrome b558)
Assay: Cell surface expression of cytochrome b558 (NADPH oxidase) by flow cytometry with antibody 7D5
Format: cell-based, human
Conditions: leukocytes from X91-CGD patient; 2 hrs treatment; anti-cytochrome b558 antibody 7D5, flow cytometry
Procedure: Blood samples with EDTA were obtained from patients with X91-chronic granulomatous disease. The samples were water bathed at 37° C. in a lysate buffer containing ammonium chloride, sodium carbonate and EDTA for several minutes to lyze residual red blood cells. The samples were then added with a suspension buffer containing globulin and EDTA to wash and remove the residual lysate buffer. The leukocytes were collected by centrifugation and counted.
Total leukocytes were maintained in RPMI 1640 medium supplemented with 10% heat-inactivated FBS at 37° C. under a humidified atmosphere (5% CO2+95% air). The leukocytes were seeded at a density of 3 to 5×10^5/ml and grown for 2 hrs in the presence or absence of 100 nM cofactor FAD and/or thapsigargin (100 nM or 1 μM). The cells were then cultured in 10% RPMI to recover for 1 hr prior to the following experiments.
To test whether the treatment with thapsigargin or cofactor FAD alone or in combination has effects on the cell surface expression of leukocyte NADPH oxidase, the cell surface expressions of cytochrome b558 in leukocytes with or without desired treatment were assayed. Leukocytes were prepared as illustrated in Example 1. The leukocytes, at the concentration of 5×10^5 cells/ml, were incubated with anticytochrome b558 monoclonal antibody (7D5) at 4° C. for 30 min, followed by incubation with FITC-labeled goat anti-mouse IgG for 40 min.

SMILES	cell surface NADPH oxidase expression
Cc1cc2nc3c(=O)[nH]c(=O)nc-3n(C[C@H](O)[C@H](O)[C@H](O)COP(=O)(O)OP(=O)(O)OC[C@H]3O[C@@H](n4cnc5c(N)ncnc54)[C@H](O)[C@@H]3O)c2cc1C [cofactor FAD, flavin adenine dinucleotide]	slightly enhanced
C/C=C(/C)C(=O)O[C@H]1C(C)=C2[C@H]([C@@H]1OC(=O)CCCCCCC)[C@@](C)(OC(C)=O)C[C@H](OC(=O)CCC)[C@@]1(O)[C@H]2OC(=O)[C@@]1(C)O [thapsigargin]	slightly enhanced
